Experimental data from ChEMBL document CHEMBL1201862, “PubChem BioAssay data set” (2004).
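Test compounds were applied to cells in 96-well plates for 48 hours at 5 doses. Abbreviation: GI50, concentration required for 50% inhibition of growth.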 Calls of active or inactive are those of the source. No stated cut-off is given here; in the data, active = GI50 up to about 1.1 µM and inactive = higher.

Assays:
Assay in all cases: DTP human tumour cell line panel, 48 h
[1] = tested on: HOP-92
[2] = tested on: SF-268
[3] = tested on: SN12C
[4] = tested on: SK-MEL-2
[5] = tested on: HL-60
[6] = tested on: RPMI-8226
[7] = tested on: ACHN
[8] = tested on: U-251
[9] = tested on: HCC 2998
[10] = tested on: M14
[11] = tested on: CAKI-1
[12] = tested on: HCT-116
[13] = tested on: LOX IMVI
[14] = tested on: UACC-257
[15] = tested on: SK-OV-3
[16] = tested on: SNB-75
[17] = tested on: NCI-H226
[18] = tested on: UO-31
[19] = tested on: SR

Row | SMILES | GI50 [1] | GI50 [2] | GI50 [3] | GI50 [4] | GI50 [5] | GI50 [6] | GI50 [7] | GI50 [8] | GI50 [9] | GI50 [10] | GI50 [11] | GI50 [12] | GI50 [13] | GI50 [14] | GI50 [15] | GI50 [16] | GI50 [17] | GI50 [18] | GI50 [19]
1 | CCCCCCCCCCCCCCCCOCC(CCl)OP(=O)(O)OP(=O)(O)OCC1OC(n2ccc(N)nc2=O)C(O)C1O (stereo not drawn) | > 100 µM (inactive) | > 100 µM (inactive) | > 100 µM (inactive) | > 100 µM (inactive) | > 100 µM (inactive) | > 100 µM (inactive) | > 100 µM (inactive) | > 100 µM (inactive) | > 100 µM (inactive) | > 100 µM (inactive) | > 100 µM (inactive) | > 100 µM (inactive) | > 100 µM (inactive) | > 100 µM (inactive) | > 100 µM (inactive) | 6.07 µM (inactive) | > 100 µM (inactive) | > 100 µM (inactive) | –
2 | Nc1c(C(=O)Nc2ccccc2)[n+]([O-])c2ccccc2[n+]1[O-] | 16.7 µM (inactive) | 25.1 µM (inactive) | 14.8 µM (inactive) | 15.8 µM (inactive) | 17.9 µM (inactive) | 20.6 µM (inactive) | 16.3 µM (inactive) | 12.9 µM (inactive) | 17.6 µM (inactive) | 15.6 µM (inactive) | 5.6 µM (inactive) | – | 12.3 µM (inactive) | 17.9 µM (inactive) | > 100 µM (inactive) | 13 µM (inactive) | 23.9 µM (inactive) | 21.2 µM (inactive) | –
3 | COC(=O)/C(=C\c1ccc(N(CCC#N)CCC#N)cc1)NC(=O)c1cc([N+](=O)[O-])ccc1Cl | – | > 100 µM (inactive) | > 100 µM (inactive) | > 100 µM (inactive) | – | > 100 µM (inactive) | > 100 µM (inactive) | > 100 µM (inactive) | > 100 µM (inactive) | > 100 µM (inactive) | > 100 µM (inactive) | > 100 µM (inactive) | > 100 µM (inactive) | > 100 µM (inactive) | > 100 µM (inactive) | > 100 µM (inactive) | > 100 µM (inactive) | > 100 µM (inactive) | 30.5 µM (inactive)
4 | Cn1cc(S(=O)(=O)NC(=O)Nc2ccc(Cl)cc2)c(=O)c2ccc(Cl)cc21 | – | > 100 µM (inactive) | 99.3 µM (inactive) | > 100 µM (inactive) | – | – | 34.2 µM (inactive) | 93.1 µM (inactive) | 85.3 µM (inactive) | > 100 µM (inactive) | > 100 µM (inactive) | 84.1 µM (inactive) | > 100 µM (inactive) | > 100 µM (inactive) | > 100 µM (inactive) | > 100 µM (inactive) | 75 µM (inactive) | > 100 µM (inactive) | 43.8 µM (inactive)
5 | Cc1ccc(NC(=O)CC/C(CC(=O)C(C)(C)C)=N/NC(=O)C[N+](C)(C)C)cc1C | – | > 100 µM (inactive) | > 100 µM (inactive) | > 100 µM (inactive) | > 100 µM (inactive) | – | > 100 µM (inactive) | > 100 µM (inactive) | > 100 µM (inactive) | > 100 µM (inactive) | > 100 µM (inactive) | > 100 µM (inactive) | > 100 µM (inactive) | > 100 µM (inactive) | > 100 µM (inactive) | – | > 100 µM (inactive) | > 100 µM (inactive) | 84.1 µM (inactive)
6 | C[C@@H](NC1CCC[C@H]1O)c1ccccc1 (stereo partly drawn) | > 100 µM (inactive) | – | > 100 µM (inactive) | > 100 µM (inactive) | > 100 µM (inactive) | > 100 µM (inactive) | > 100 µM (inactive) | > 100 µM (inactive) | > 100 µM (inactive) | > 100 µM (inactive) | > 100 µM (inactive) | > 100 µM (inactive) | > 100 µM (inactive) | > 100 µM (inactive) | > 100 µM (inactive) | > 100 µM (inactive) | > 100 µM (inactive) | > 100 µM (inactive) | –
7 | CCN(CC)CCCC(C)Nc1ccnc2ccc3nn(C)nc3c12 (stereo not drawn) | – | > 100 µM (inactive) | 38.9 µM (inactive) | – | 30.1 µM (inactive) | 53 µM (inactive) | 65.3 µM (inactive) | 65.6 µM (inactive) | 40.2 µM (inactive) | 23.7 µM (inactive) | > 100 µM (inactive) | 26.2 µM (inactive) | 17.9 µM (inactive) | 36 µM (inactive) | > 100 µM (inactive) | > 100 µM (inactive) | 39.6 µM (inactive) | 40 µM (inactive) | 32.8 µM (inactive)
8 | C1CN2CCN3CCN4CCN1[PH]243 | – | – | > 100 µM (inactive) | > 100 µM (inactive) | > 100 µM (inactive) | > 100 µM (inactive) | > 100 µM (inactive) | > 100 µM (inactive) | > 100 µM (inactive) | > 100 µM (inactive) | – | > 100 µM (inactive) | > 100 µM (inactive) | > 100 µM (inactive) | > 100 µM (inactive) | > 100 µM (inactive) | > 100 µM (inactive) | > 100 µM (inactive) | > 100 µM (inactive)
9 | CCOc1ccc(NC(=O)C2=C(C)NC(C)=C(C(=O)Nc3ccc(OCC)cc3)C2c2ccc(O)c(OC)c2)cc1 | 20.4 µM (inactive) | > 100 µM (inactive) | 86.3 µM (inactive) | 64.6 µM (inactive) | 42.7 µM (inactive) | 28.6 µM (inactive) | 55.1 µM (inactive) | 55.6 µM (inactive) | 2.35 µM (inactive) | > 100 µM (inactive) | > 100 µM (inactive) | – | > 100 µM (inactive) | 47.8 µM (inactive) | > 100 µM (inactive) | 14.3 µM (inactive) | 40.3 µM (inactive) | 52.4 µM (inactive) | –
10 | CN(C)CCCNC(=O)c1cccc2nc3ccccc3nc12 | 50.4 µM (inactive) | 0.32 µM (active) | 23.2 µM (inactive) | 14.8 µM (inactive) | – | 20.1 µM (inactive) | 7.43 µM (inactive) | 19.1 µM (inactive) | 14.8 µM (inactive) | 22 µM (inactive) | > 36.1 µM (inactive) | 4.83 µM (inactive) | 6.52 µM (inactive) | 13.2 µM (inactive) | > 52.1 µM (inactive) | 35.8 µM (inactive) | 12 µM (inactive) | 24.5 µM (inactive) | 4.57 µM (inactive)
11 | COC(=O)C12C(=O)O[C@H](C)C1(O)C(C)C(=O)N2C (stereo partly drawn) | < 0.01 µM (active) | – | – | > 100 µM (inactive) | – | > 100 µM (inactive) | – | > 100 µM (inactive) | > 100 µM (inactive) | > 100 µM (inactive) | > 100 µM (inactive) | > 100 µM (inactive) | – | – | > 100 µM (inactive) | – | – | > 100 µM (inactive) | > 100 µM (inactive)
12 | OC12c3ccccc3C1CCCCC2N1CCCC1 (stereo not drawn) | – | > 100 µM (inactive) | > 100 µM (inactive) | > 100 µM (inactive) | > 100 µM (inactive) | > 100 µM (inactive) | > 100 µM (inactive) | > 100 µM (inactive) | – | > 100 µM (inactive) | – | > 100 µM (inactive) | > 100 µM (inactive) | > 100 µM (inactive) | > 100 µM (inactive) | > 100 µM (inactive) | > 100 µM (inactive) | > 100 µM (inactive) | > 100 µM (inactive)
13 | OCC(O)C(O)C(O)c1nn(-c2ccccc2)c2nc3cc(Cl)c(Cl)cc3nc12 (stereo not drawn) | – | 55.1 µM (inactive) | 41.9 µM (inactive) | 33 µM (inactive) | 27 µM (inactive) | 25.4 µM (inactive) | 25.1 µM (inactive) | 70.5 µM (inactive) | 32.9 µM (inactive) | 17.7 µM (inactive) | 20 µM (inactive) | 54.5 µM (inactive) | 36.5 µM (inactive) | 63.1 µM (inactive) | > 100 µM (inactive) | 20.3 µM (inactive) | 36.5 µM (inactive) | 37.2 µM (inactive) | 33.9 µM (inactive)
14 | Cn1c2c(c3ccccc31)C1CCCCC1C1C(=O)NC(=O)C21 (stereo not drawn) | – | 70.1 µM (inactive) | 33.2 µM (inactive) | – | 26.6 µM (inactive) | 41.8 µM (inactive) | 35.2 µM (inactive) | > 100 µM (inactive) | 52.2 µM (inactive) | 57.9 µM (inactive) | – | – | 33.1 µM (inactive) | – | > 100 µM (inactive) | 33.1 µM (inactive) | 21.6 µM (inactive) | 28.6 µM (inactive) | 32.1 µM (inactive)
15 | CC1C(O)=C(O)c2ccccc2N1O (stereo not drawn) | 31.9 µM (inactive) | > 100 µM (inactive) | > 100 µM (inactive) | > 100 µM (inactive) | 44.2 µM (inactive) | 80.4 µM (inactive) | > 100 µM (inactive) | > 100 µM (inactive) | > 100 µM (inactive) | > 100 µM (inactive) | > 100 µM (inactive) | 49.8 µM (inactive) | 82.2 µM (inactive) | 83.2 µM (inactive) | > 100 µM (inactive) | > 100 µM (inactive) | 37.4 µM (inactive) | > 100 µM (inactive) | –
16 | O=C1OCCC1(Cc1ccc(Cl)cc1)Cc1ccc(Cl)cc1 | 30.3 µM (inactive) | > 100 µM (inactive) | > 100 µM (inactive) | 71.8 µM (inactive) | > 100 µM (inactive) | > 100 µM (inactive) | > 100 µM (inactive) | 52.1 µM (inactive) | – | > 100 µM (inactive) | > 100 µM (inactive) | > 100 µM (inactive) | – | > 100 µM (inactive) | > 100 µM (inactive) | 21.6 µM (inactive) | > 100 µM (inactive) | 54.7 µM (inactive) | > 100 µM (inactive)
